# “Also recorded” adds a separate entry of the source. Like-named read-outs stand apart in the source and are kept apart here.
# Tests used:
# Taq Polymerase [1] = target: T1, Taq Polymerase (Thermus aquaticus, UniProt P19821); experiment: Substrate for Taq polymerase in PCR, replacing normal dNTPs; format: biochemical
# Experimental: All dNTPs were at 500 μM, except in sample 4 and 7 where dPTP was at 1 mM.
# B) The PCR reaction mix included: dATP, dCTP and TTP at 500 μm. Samples 1 to 4 contained dGTP at 50 μM, 25 μM, […] and 6.25 μM respectively, and 8-oxodGTP at 500 μM. Samples 5 to 8 contained the same decreasing amounts of dGTP but no 8-oxodGTP;
# Lanes 5 to 8 show the PCR products obtained using the same conditions but in the absence of 8-oxodGTP.
# target DNA sequence MH22 = experiment: PCR mutagenesis of target DNA, cloning and sequencing; format: biochemical; details: for Number of point mutations, coding / Number of point mutations, silent / Number of point mutations, total: bases sequenced: dPTP 4093, 8-oxodGTP 5463, dPTP & 8-oxodGTP 3751; for additional (unexpected) mutations found: dPTP: out of 4093 bp, 8-oxodGTP: out of 5463 bp; for linear relation of mutation frequency with number of PCR cycles, up to: equimolar
# Experimental: The four normal dNTPs and the analogues were used in equimolar amounts (500 μM);
# Data obtained after different number of PCR cycles have been pooled and figures express percentage of total number of mutations;
# Numbers at the top of the Table indicate how many times a particular codon is present in the target sequence. Open squares indicate single point mutations within a particular codon. Filled circles indicate two point mutations within a particular codon. […] Squares in shaded areas indicate silent mutations;
# Filled in symbols indicate a single nucleotide change within a codon, open symbols denote two nucleotide changes within the same codon. […] Amino acids are grouped in five classes according to their physico-chemical characteristics: glycine, non-polar, polar, positively charged, and negatively charged.
# The first number at the 5'-end of each sequence indicates how many PCR cycles were allowed in the presence of the analogue(s). The second number identifies different clones.
# In order to investigate the mutations resulting when dPTP or 8oxodGTP was used in DNA synthesis reactions, PCR reactions were set up in which dPTP was added in equimolar concentrations to the four normal dNTPs. The DNA was amplified for a variable number of cycles and, in order to eliminate the incorporated base analogues, an aliquot of the amplified DNA was used as template in a second PCR amplification in which only the four normal dNTPs were used. The PCR product was subsequently cloned, and some of the clones sequenced (in this way, the pattern of mutation was not influenced by the DNA repair mechanisms of the E. coli host).
# DNA amplification reactions were carried out for variable number of cycles, as indicated in FIGS. 11A-11C by the number preceding the point in the clone designation.
# For mutagenesis experiments, 10 fmoles of template DNA were amplified using 0.5 μl of AmpliTaq polymerase (5 U/μl, Applied Biosystems) in a 20 μl reaction containing the appropriate sense and antisense […] at 0.5 μM, 2 mM MgCl2, 10 mM Tris-HCl pH8.3, 50 mM KCl, 1 g/l gelatine and dATP, dCTP, dGTP, TTP, dPTP and/or 8-oxodGTP, each at 500 μM. After various cycles (92° C. for 1 min, 55° C. for 1.5 min, 75° C. for 5 min), 1 μl of the amplified material was used in a second PCR in which the same conditions as above were used except that no dPTP or 8-oxodGTP were added to the reaction mixture. The product of the second PCR was digested with BstEII and PstI and cloned into M13VHPCRl vector (Jones et al., 1986 Nature 321, 522-525).
# [2] = tested on: E.coli DNA polymerase I Klenow fragment; details: 37° C., Purmal et al., 1994, cited from earlier work
# [3] = tested on: thermostable Tth DNA polymerase; details: Pavlov et al., 1994; cited from earlier work
# Taq Polymerase [4] = target: T1, Taq Polymerase; details: cited from earlier work
# [5] = Singer et al. 1989; cited from earlier work
# Taq Polymerase [6] = target: T1, Taq Polymerase; experiment: Steady state kinetics of insertion opposite template A or G, primed synthetic oligonucleotide templates; format: biochemical; details: for Relative Efficiency / Vmax /Km / Vmax^(rel): 55° C.
# Excerpt: FIGS. 5A-D show (Top): Plots of initial velocities against [dNTP] for the incorporation by Taq polymerase of dPTP opposite A (A), TTP opposite A (B), dPTP opposite G (C), and dCTP opposite G (D).
# In order to compare the relative efficiencies of insertion of dPTP opposite template adenine and guanine residues respectively, we adopted the procedure of Boosalis et al. (Boosalis et al., 1987 J. Biol. Chem. 262, 14689-14696) for the determination of steady state kinetics using one of two primed synthetic oligonucleotide templates (FIG. 5). The ^32 P-labelled primer in each case was extended by the incorporation of dGTP at two positions, followed by dPTP (template 1 and 2), TTP (template 1) or dCTP (template 2). Separation of the products by PAGE followed by quantitation of the radioactivity using a PhosphorImager allowed the determination of the initial velocities (Boosalis et al., 1987). Due to the very high extension rate of Taq polymerase, the kinetic parameters were determined at 55° C. The velocities for the insertion of the particular triphosphate opposite template (Vmax) and Km values (μM) for particular insertions were determined from non-linear regression fitting to the Michaelis-Menten equation.
# TEM-1 β-lactamase = target: T2, TEM-1 β-lactamase (Escherichia coli, UniProt P62593); experiment: Cefotaxime resistance / hydrolytic activity of TEM-1 β-lactamase and mutants in E. coli; format: cell-based; details: wild type TEM-1
# T2 construct: mutants cloned in pBC KS+
# T2 sequence (P62593 24-286 limits assumed): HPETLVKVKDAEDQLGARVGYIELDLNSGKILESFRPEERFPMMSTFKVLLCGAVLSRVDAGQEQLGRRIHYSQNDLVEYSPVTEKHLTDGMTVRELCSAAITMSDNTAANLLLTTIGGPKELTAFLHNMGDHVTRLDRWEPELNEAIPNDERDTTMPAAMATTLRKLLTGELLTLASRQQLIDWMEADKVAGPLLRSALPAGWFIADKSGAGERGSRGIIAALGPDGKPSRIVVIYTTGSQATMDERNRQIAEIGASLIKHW
# Experimental: In this experiment we set to improve the hydrolytic activity of the enzyme TEM-1 β-lactamase on the poorly hydrolysed substrate cefotaxime [minimum inhibitory concentration (MIC)=0.02 μg/ml] by repeated rounds of random mutagenesis and selection on increasing concentrations of the antibiotic. The best mutants selected in the first round are subjected to a second round of mutagenesis and selection in the presence of higher concentration of antibiotic. A stepwise improvement of the efficiency of TEM-1 hydrolytic activity is attained by progressively increasing the selective pressure.
# The wild type TEM-1 gene from the plasmid pBR322 was used as a template for PCT amplification in the presence of dPTP and 8-oxodGTP in addition to the four normal dNTPs. The pool of mutants generated was cloned in the vector pBC KS^+ and the library of mutants transformed in E. coli by electroporation. […] Selected mutant were analysed by sequencing and the results of the first round of mutagenesis and selection are shown in Table 3A. A different number of cycles of the mutagenic PCT was used to generate four independent libraries of mutants (libA, libB, libC and libD) each characterised by a different frequency of mutation (0.3% for libA, 0.3% for libB, 1.8% for libC and 6.3% for libD), as determined by sequence analysis of unselected clones. […]
# T1 sequence (P19821 whole entry): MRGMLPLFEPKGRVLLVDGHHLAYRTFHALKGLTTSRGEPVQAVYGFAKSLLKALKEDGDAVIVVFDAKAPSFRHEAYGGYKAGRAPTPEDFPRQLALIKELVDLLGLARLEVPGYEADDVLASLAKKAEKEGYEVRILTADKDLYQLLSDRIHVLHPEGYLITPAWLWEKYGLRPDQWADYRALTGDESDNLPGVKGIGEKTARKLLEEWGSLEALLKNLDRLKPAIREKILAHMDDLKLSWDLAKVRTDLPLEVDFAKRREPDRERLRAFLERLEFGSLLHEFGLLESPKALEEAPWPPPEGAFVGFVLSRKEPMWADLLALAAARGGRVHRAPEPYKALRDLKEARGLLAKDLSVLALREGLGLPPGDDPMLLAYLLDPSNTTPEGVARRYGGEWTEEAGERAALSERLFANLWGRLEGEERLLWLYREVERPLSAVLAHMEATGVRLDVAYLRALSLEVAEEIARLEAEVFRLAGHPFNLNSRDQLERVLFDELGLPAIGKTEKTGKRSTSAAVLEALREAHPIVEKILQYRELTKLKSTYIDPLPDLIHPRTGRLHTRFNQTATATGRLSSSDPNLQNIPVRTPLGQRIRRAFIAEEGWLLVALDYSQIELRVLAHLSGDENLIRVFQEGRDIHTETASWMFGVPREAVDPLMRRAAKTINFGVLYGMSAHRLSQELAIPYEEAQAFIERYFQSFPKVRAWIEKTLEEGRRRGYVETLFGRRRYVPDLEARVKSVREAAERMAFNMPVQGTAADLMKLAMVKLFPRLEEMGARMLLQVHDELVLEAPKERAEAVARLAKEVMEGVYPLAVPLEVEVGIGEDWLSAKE
structure (smiles),measurement,setting,value
"Nc1nc2c(nc(O)n2[C@H]2C[C@H](O)[C@@H](COP(=O)(O)OP(=O)(O)OP(=O)(O)O)O2)c(=O)[nH]1 [8-oxodGTP, 2'-Deoxy-8-hydroxyguanosine 5'-triphosphate]",incorporation into DNA and its extension,"Taq Polymerase [1]; normal or limiting dGTP, higher 8-oxodGTP",some incorporation into DNA and its extension could be demonstrated
same,types of mutation produced,target DNA sequence MH22,two transversions (A→C and T→G)
same,A→C transversions of total mutations,"target DNA sequence MH22; 500 μM, pooled cycles",38.8%
same,T→G transversions of total mutations,"target DNA sequence MH22; 500 μM, pooled cycles",59%
same,codons replaced,"target DNA sequence MH22; 8 mutant clones, equimolar with dNTPs",18 codons
same,"Number of point mutations, coding",target DNA sequence MH22,65
same,"Number of point mutations, silent",target DNA sequence MH22,16
same,"Number of point mutations, total",target DNA sequence MH22,91
same,additional (unexpected) mutations found,target DNA sequence MH22,One C→A transversion; also recorded: two A→G transitions and one G→A transition
same,"linear relation of mutation frequency with number of PCR cycles, up to",target DNA sequence MH22; 500 μM,≥ 30 cycles
same,Km,[2]; read-out: Km for insertion opposite A,58 µM
same,Km,[2]; read-out: Km for insertion opposite C,63 µM
same,A→C transversions rate,[3],approximately 1%
CON=c1[nH]c(N)nc2c1ncn2[C@H]1C[C@H](O)[C@@H](CO)O1 [K],recognition of template DNA containing the analogue by polymerases,Taq Polymerase [4],recognised by polymerases such as Taq polymerase in PCR and Sequenase™ in DNA sequencing
CCOc1nc(=O)c(C)cn1[C@H]1C[C@H](O)[C@@H](COP(=O)(O)OP(=O)(O)OP(=O)(O)O)O1 [O^2 -ethylthymidine triphosphate],A→T transversions induced,[5],"induces A→T transversions, albeit at a low frequency"
O=C1NC2=NOCCC2=CN1[C@H]1C[C@H](O)[C@@H](CO)O1 [P],recognition of template DNA containing the analogue by polymerases,Taq Polymerase [4],recognised by polymerases such as Taq polymerase in PCR and Sequenase™ in DNA sequencing
Cc1cn([C@H]2C[C@H](O)[C@@H](COP(=O)(O)OP(=O)(O)OP(=O)(O)O)O2)c(=O)[nH]c1=O [TTP],Relative Efficiency,Taq Polymerase [6]; template A,1.00
same,Vmax /Km,Taq Polymerase [6]; template A,167000 M⁻¹
same,Vmax^(rel),Taq Polymerase [6]; template A,1.02 ± 0.11
CO/N=C(\C(=O)N[C@@H]1C(=O)N2C(C(=O)O)=C(COC(C)=O)CS[C@H]12)c1csc(N)n1 [cefotaxime],minimum inhibitory concentration (MIC),TEM-1 β-lactamase,0.02 µg/mL
Nc1ccn([C@H]2C[C@H](O)[C@@H](COP(=O)(O)OP(=O)(O)OP(=O)(O)O)O2)c(=O)n1 [dCTP],Relative Efficiency,Taq Polymerase [6]; template G,1.00
same,Vmax^(rel),Taq Polymerase [6]; template G,1.01 ± 0.09
"O=P(O)(O)OP(=O)(O)OP(=O)(O)OC[C@H]1O[C@@H](n2cnc3c(O)ncnc32)C[C@@H]1O [dITP, deoxyinosine triphosphate]",substrate quality for Taq polymerase,Taq Polymerase [4]; prior art,poor substrate for Taq Polymerase and cannot support DNA synthesis when replacing any of the four normal dNTPs
"CON=c1[nH]c(N)nc2c1ncn2[C@H]1C[C@H](O)[C@@H](COP(=O)(O)OP(=O)(O)OP(=O)(O)O)O1 [dKTP, 2-Amino-9-(2-deoxy-β-D-erythropentofuranosyl)-6-methoxyaminopurine 5'-triphosphate]",replacement of dATP and dGTP in PCR,"Taq Polymerase [1]; 350 base pair DNA, 30 cycles","could replace dATP and dGTP, but only to a limited extent"
"O=C1NC2=NOCCC2=CN1[C@H]1C[C@H](O)[C@@H](COP(=O)(O)OP(=O)(O)OP(=O)(O)O)O1 [dPTP, 6-(2-deoxy-β-D-erythropentofuranosyl)-3,4-dihydro-8H-pyrimido-[4,5-c][1,2]oxazine-7-one 5'-triphosphate]",replacement of TTP in PCR,"Taq Polymerase [1]; 350 base pair DNA, 30 cycles",could completely replace TTP and yield amounts of product comparable to those obtained using the four normal triphosphates
same,replacement of dCTP in PCR,"Taq Polymerase [1]; 350 base pair DNA, 30 cycles",could replace dCTP to some extent
same,incorporation efficiency opposite template adenine versus guanine,Taq Polymerase [6],approximately three times more efficiently opposite template adenine than guanine residues
same,recognition by Taq polymerase compared with TTP,Taq Polymerase [6],virtually indistinguishable from TTP in terms of its recognition by Taq polymerase
same,Relative Efficiency,Taq Polymerase [6]; template A,0.99
same,Vmax /Km,Taq Polymerase [6]; template A,165000 M⁻¹
same,Vmax^(rel),Taq Polymerase [6]; template A,0.86 ± 0.06
same,Relative Efficiency,Taq Polymerase [6]; template G,0.11
same,Vmax /Km,Taq Polymerase [6]; template G,57000 M⁻¹
same,Vmax^(rel),Taq Polymerase [6]; template G,0.69 ± 0.08
same,mutagenic efficiency compared,target DNA sequence MH22,much more efficient mutagen than 8-oxodGTP
same,types of mutation produced,target DNA sequence MH22,"four transitions (A→G, T→C, G→A and C→T)"
same,A→G mutations of total mutations,"target DNA sequence MH22; 500 μM, pooled cycles",46.6%
same,C→T mutations of total mutations,"target DNA sequence MH22; 500 μM, pooled cycles",8%
same,G→A mutations of total mutations,"target DNA sequence MH22; 500 μM, pooled cycles",9.2%
same,T→C mutations of total mutations,"target DNA sequence MH22; 500 μM, pooled cycles",35.5%
same,"codons mutated to alternative ones, out of 43 codons present","target DNA sequence MH22; 12 mutant clones, equimolar with dNTPs",40 codons
same,"Number of point mutations, coding",target DNA sequence MH22,318
same,"Number of point mutations, silent",target DNA sequence MH22,66
same,"Number of point mutations, total",target DNA sequence MH22,384
same,additional (unexpected) mutations found,target DNA sequence MH22,one T→G and two A→T transversions
same,"linear relation of mutation frequency with number of PCR cycles, up to",target DNA sequence MH22; 500 μM,20 cycles

# Reference: patent publication US6153745A, “Relating to mutagenesis of nucleic acids” (Amersham Pharmacia Biotech UK Limited, priority 1995, dated 2000)
